{"source": "patent US12691103B2", "about": "(Jinan University, priority 2022, dated 2026)", "key": {"busulfan-modeled mice": {"tested_on": "busulfan-modeled mice", "conditions": "model group, busulfan 30 mg/kg single intraperitoneal injection; compared with the control group", "description": "The Kunming mice are injected intraperitoneally with busulfan (30 mg/kg). An average weight of the mice is 27 grams (g). Each mouse is injected with 0.8 mg busulfan. A total of 40 mice are modeled.\nAfter one week of modeling the mice, the average weight of the experimental mice is grams (g). […] The control group and the model group are injected with the equivalent amount of physiological saline.\nAfter the mice are anesthetized and sacrificed, the left epididymal tail is immediately removed for semen analysis. The left testis is stored at −80° C., and the parameters such as protein and messenger ribonucleic acid (mRNA) expression are detected. The right testis and right epididymis are fixed with 4% paraformaldehyde for further histological analysis.\n(2) Staining with hematoxylin: the soaked sections are taken out and dried, a hematoxylin staining solution is added to cover the tissue and stained for 3 minutes.\n(3) Differentiation: a differentiation solution is dropped at the sections, after 5-6 seconds (s), when observing that the color has faded, the section can be rinsed with the ultrapure water.\n(4) Bluing: hematoxylin bluing solution is dropped at the section, after 5-6 seconds, when observing the color blue, the sections can be rinsed with the ultrapure water. […]"}, "[1]": {"tested_on": "men with oligospermia with hypogonadism", "conditions": "cited from earlier work"}, "[2]": {"conditions": "after administration (oral); cited from earlier work"}, "[3]": {"tested_on": "patients with oligospermia", "conditions": "GnRH supplementation; cited from earlier work"}}, "note": "Structures can show the parent of a compound that is named as a salt. Ends that are not written are not given here.", "data": [{"compound": "CS(=O)(=O)OCCCCOS(C)(=O)=O", "note": "[busulfan]", "values": [{"measurement": "structure of seminiferous tubules (HE staining of testes)", "setting": "busulfan-modeled mice", "result": "severely damages"}]}, {"compound": "CCN(CC)CCOc1ccc(C(=C(Cl)c2ccccc2)c2ccccc2)cc1", "note": "[clomiphene citrate]", "values": [{"measurement": "bone mineral density of patients", "setting": "[1]; 12-month treatment", "result": "significantly reduce"}, {"measurement": "usefulness in men with oligospermia with hypogonadism", "setting": "[1]; in vivo", "result": "proven to be useful"}]}, {"compound": "Nc1nc2ccc(OC(F)(F)F)cc2s1", "note": "[riluzole, 2-amino-6-trifluomethoxy-benzothiazole]", "values": [{"measurement": "time to peak of blood concentration", "setting": "[2]", "result": "60 to 90", "unit": "min"}]}, {"compound": "GnRH: gonadotropin-releasing hormone supplementation (QHWSYGLRPG; ends and bridges not checked; UniProt P01148 24-33, looked up)", "values": [{"measurement": "patients who succeed in spermatogenesis", "setting": "[3]", "result": 77, "unit": "%"}]}]}
